# US9273038B2, “Solid forms of an ion channel modulator” (Gilead Sciences, Inc., priority 2014, dated 2016)
# Like-named read-outs stand apart in the source and are kept apart here.
# Columns and labels:
# Format in all cases: physicochemical
# [1] = Stable form screen of Compound I Form IV (slurry at room temperature); settings: for solubility at 24 h: slurry of the solid in solvent, thermodynamic from solid, read-out: Solubility after 24 h
# Method: Compound I Form IV (about 50 mg) was slurried in 0.5-1 mL of solvent and allowed to stir at room temperature for 2 weeks. […] Similar results were observed after 2 weeks of equilibration (Table 15).
# [2] = Dynamic vapor sorption (DVS) analysis
# Method: The solids with unique XRPD patterns were characterized by DSC, TGA, ^1H NMR, KF and DVS. All XRPD patterns were obtained in the experimental setting as follows: 45 kV, 40 mA, Kα1=1.5406 Å, scan range 2 to 40°, step size 0.0167°, counting time: 15.24 s. DSC and TGA analyses were performed using 10° C./min heating rate over the 20 to 350° C. temperature range.
# [3] = Thermal stability of Compound I Form IV under vacuum at 45° C. (XRPD, HPLC); settings: for HPLC (% AN) / XRPD / HPLC (% ES): drying under vacuum at 45° C.
# Method: Drying study was also performed of Compound I Form IV under vacuum at 45° C. in an attempt to determine the chemical stability of this material by HPLC as well as form stability by XRPD.
# [4] = Abbreviated stable form screen of Compound I Form V (slurry at room temperature); settings: for solubility at 3 days: slurry of the solid in solvent, organic solvent or mixture, thermodynamic from solid, solid converted to Form VI
# Method: Abbreviated stable form screen of Compound I Four V was performed by slurrying […] (about 100 mg) in IPA, IPAc and MTBE (1-2 mL) in an attempt to obtain anhydrous form as summarized in Table 16. The first aliquot (about 0.5 mL) was taken for XRPD analysis and solubility assessment after 3 days of equilibration at room temperature. Solids were analyzed before and after overnight drying at 45° C. […] After two weeks equilibration at room temperature no form change was observed. XRPD patterns of all samples were consistent with Compound I Form VI.
# [5] = Hydrate screen in ethanol/water and isopropanol/water: solubility and relative form stability; settings: 2 weeks
# Method: A hydrate screen starting from Form I was also conducted to evaluate whether hydrates of Compound I exist. The hydrate screen was conducted in ethanol/water (Table 6) and isopropanol/water (Table 7) mixtures, and in both cases, a new polymorph of Compound I was discovered (denoted as Form III).
# From the initial hydrate screens presented in Table 6 and Table 7 no apparent trends were observed. In this case, all slurries of Form I in EtOH/water or IPA/water mixtures remained unchanged after 2 weeks (Table 8 and Table 9). Since Form III has been observed previously under the same conditions, it was suspected that the lack of form conversion is mainly due to slow kinetics. […] Attempts to determine the relative stability between Forms I and III at lower water activities were unsuccessful since Form I either was too soluble or oiled out at water activities of 0.8 or below.
# [6] = Stable hydrate screen in methanol/water: solubility by TGA
# Method: Since the hydrate screens from aqueous mixtures of ethanol and isopropyl alcohol were performed in a fairly narrow range of water activity (Aw≧0.8), it was desirable to determine the outcome over a wider range of water activities. An attempt was made to explore this using a system of methanol and water (Table 10). Form I was used as the starting material. […] At and above this Aw only Form I was found.
# [7] = Determination of transition temperature between Forms I and II (slurries at 35 and 38° C., pXRD); settings: slurries with and without Form II seeds, iPrOAc/n-heptane
# Method: […] describes the set of experiments which concluded that Form I and II are enantiotropic forms and determined the transition temperature. Slurries of Form I with and without Form II seeds were stirred at 35° C. and 38° C. and samples were removed periodically for pXRD analysis. For slurries of Form I aged at 35° C., Form I dominated regardless of whether Form II seeds were present (albeit when Form II seeds were present, the full conversion to Form I took about 5 days) (Table 4). In contrast, slurries of Form I at 38° C. in the presence of Form II seeds rapidly turned over to Form II within 1 day and remained Form II even after the slurry was cooled to 20° C. for isolation. When no Form II seeds were present, Form I slurries remained unchanged even when aged at 38° C.
# [8] = Extended stable form screen starting from Form II: solubility of filtrate by TGA; settings: suspension of the solid in solvent, filtrate analysed, 21 °C, organic solvent or mixture, thermodynamic from solid, about 21° C.
# Method: These experiments were performed at about 21° C. starting from Form II. After about 3 to 6 days in suspension two experiments produced full conversion from Form II to Form I; one became biphasic; and the rest remained Form II (FIG. 43). Three of the filtrates obtained from isolating the solid phase from samples became biphasic before the solubility could be measured by TGA.
# After about 8 to 11 days in suspension the distribution of forms remained unchanged (FIG. 44). All of the filtrates except one became biphasic before solubility could be measured by TGA.
# [9] = under vacuum at 45° C., 2 and 7 days
smiles,measurement,setting,value
"CS(=O)(=O)O.O=C1c2cc(-c3ccc(OC(F)(F)F)cc3)ccc2OCCN1Cc1ncccn1 [Compound I Form IV, 4-(pyrimidin-2-ylmethyl)-7-(4-(trifluoromethoxy)phenyl)-3,4-dihydrobenzo[f][1,4]oxazepin-5(2H)-one methanesulfonic acid]",Form stability in slurry by XRPD (in words),"[1]; 17 solvents, 24 h, similar after 2 weeks, water afforded Form III (wet), Form III + Form II after air drying",no form change in all solvents except water
same,solubility at 24 h,"[1]; aqueous with cosolvent or surfactant or cyclodextrin, EtOH/water 0.8 water activity (480 μL H2O and 520 μL EtOH), all solids dissolved",> 150000 µg/mL
same,solubility at 24 h,"[1]; organic solvent or mixture, 2-Me-THF",2300 µg/mL
same,solubility at 24 h,"[1]; organic solvent or mixture, Acetone",4160 µg/mL
same,solubility at 24 h,"[1]; organic solvent or mixture, DCM",5480 µg/mL
same,solubility at 24 h,"[1]; organic solvent or mixture, EtOAc",1260 µg/mL
same,solubility at 24 h,"[1]; organic solvent or mixture, EtOH",12200 µg/mL
same,solubility at 24 h,"[1]; organic solvent or mixture, Heptane",100 µg/mL
same,solubility at 24 h,"[1]; organic solvent or mixture, IPA",5420 µg/mL
same,solubility at 24 h,"[1]; organic solvent or mixture, IPAc",780 µg/mL
same,solubility at 24 h,"[1]; organic solvent or mixture, MEK",3140 µg/mL
same,solubility at 24 h,"[1]; organic solvent or mixture, MIBK",1420 µg/mL
same,solubility at 24 h,"[1]; organic solvent or mixture, MTBE",340 µg/mL
same,solubility at 24 h,"[1]; organic solvent or mixture, MeCN",4820 µg/mL
same,solubility at 24 h,"[1]; organic solvent or mixture, MeOH",40400 µg/mL
same,solubility at 24 h,"[1]; organic solvent or mixture, THF",7940 µg/mL
same,solubility at 24 h,"[1]; organic solvent or mixture, Toluene",360 µg/mL
same,solubility at 24 h,"[1]; water, Water, solid converted to Form III (wet)",4340 µg/mL
same,Hygroscopicity by DVS (in words),[2],slightly hygroscopic
same,Moisture uptake at 90% RH (DVS),[2],1.0 wt %
same,Moisture uptake at 90% RH (DVS),[2]; listed as Form IV,1.01 wt % at
same,Hygroscopicity by DVS (in words),[2]; listed as Form IV,Slightly
same,HPLC (% AN),[3]; 0 days,100 % AN
same,XRPD,[3]; 0 days,Form IV
same,HPLC (% ES),"[3]; 0 days, theoretical strength 81.21%",80.2 % ES
same,HPLC (% AN),[3]; 2 days,100 % AN
same,XRPD,[3]; 2 days,Form IV
same,HPLC (% ES),"[3]; 2 days, theoretical strength 81.21%",85.4 % ES
same,HPLC (% AN),[3]; 7 days,100 % AN
same,XRPD,[3]; 7 days,Form IV
same,HPLC (% ES),"[3]; 7 days, theoretical strength 81.21%",82.1 % ES
same,Form stability by XRPD during drying (in words),[3]; [9],did not show any form change
same,HPLC purity during drying,[3]; [9],100 % (AUC)
same,HPLC strength during drying,"[3]; under vacuum at 45° C., 2 and 7 days, theoretical strength 81.21%",80 to 85%
"O=C1c2cc(-c3ccc(OC(F)(F)F)cc3)ccc2OCCN1Cc1ncccn1.O=S(=O)(O)c1ccccc1 [Compound I Form V, 4-(pyrimidin-2-ylmethyl)-7-(4-(trifluoromethoxy)phenyl)-3,4-dihydrobenzo[f][1,4]oxazepin-5(2H)-one benzene sulfonic acid]",Form stability in slurry by XRPD (in words),"[4]; IPA, IPAc and MTBE, 3 days, no further change after two weeks",all solids converted to anhydrous Compound I Form VI
same,solubility at 3 days,[4]; IPA,16100 µg/mL
same,solubility at 3 days,[4]; IPAc,2200 µg/mL
same,solubility at 3 days,[4]; MTBE,460 µg/mL
"O=C1c2cc(-c3ccc(OC(F)(F)F)cc3)ccc2OCCN1Cc1ncccn1 [Compound I Form I, 4-(pyrimidin-2-ylmethyl)-7-(4-(trifluoromethoxy)phenyl)-3,4-dihydrobenzo[f][1,4]oxazepin-5(2H)-one]",Form I Solubility mg/g (2 weeks),"[5]; 10% EtOH/water, water activity >0.9",0.09 mg/g
same,Form I Solubility mg/g (2 weeks),"[5]; 10% IPA/water, water activity >0.9",0.10 mg/g
same,Form I Solubility mg/g (2 weeks),"[5]; 20% EtOH/water, water activity 0.8-0.9",0.10 mg/g
same,Form I Solubility mg/g (2 weeks),"[5]; 20% IPA/water, water activity >0.9",0.18 mg/g
same,Form I Solubility mg/g (2 weeks),"[5]; 25% IPA/water, water activity >0.9",0.65 mg/g
same,Form I Solubility mg/g (2 weeks),"[5]; 30% EtOH/water, water activity 0.8-0.9",0.49 mg/g
same,Form I Solubility mg/g (2 weeks),"[5]; 30% IPA/water, water activity >0.9",4.7 mg/g
same,Form I Solubility mg/g (2 weeks),"[5]; 35% EtOH/water, water activity 0.8-0.9",1.3 mg/g
same,3 days TGA,"[6]; Aw 0.6, 3 days",14 mg/mL
same,3 days TGA,"[6]; Aw 0.7, 3 days",4.5 mg/mL
same,14 days TGA,"[6]; Aw 0.7, 14 days",2 mg/mL
same,3 days TGA,"[6]; Aw 0.8, 3 days",1.4 mg/mL
same,14 days TGA,"[6]; Aw 0.8, 14 days",1 mg/mL
same,3 days TGA,"[6]; Aw 0.9, 3 days",0.5 mg/mL
same,14 days TGA,"[6]; Aw 0.9, 14 days",<1 mg/mL
same,Solubility (in words),"[6]; Aw below 0.6, only solutions present",extraordinarily high
same,Relative stability of Forms I and II (in words),[7]; listed as Form I,the more stable form at below 35 °C
"O=C1c2cc(-c3ccc(OC(F)(F)F)cc3)ccc2OCCN1Cc1ncccn1 [Compound I Form II, 4-(pyrimidin-2-ylmethyl)-7-(4-(trifluoromethoxy)phenyl)-3,4-dihydrobenzo[f][1,4]oxazepin-5(2H)-one]",Solubility,"[8]; Ethanol/n-heptane (1/4) v/v, 4-6 days, read-out: 4-6 Days Solubility",32000 µg/mL
same,Solubility,"[8]; MIBK/n-heptane (1/4) v/v, 4-6 days, read-out: 4-6 Days Solubility",26000 µg/mL
same,Solubility,"[8]; MIBK/n-heptane (1/4) v/v, 8-11 days, read-out: 8-11 Day Solubility",35000 µg/mL
same,Solubility,"[8]; THF/n-heptane (1/4) v/v, 4-6 days, read-out: 4-6 Days Solubility",29000 µg/mL
same,Relative stability of Forms I and II (in words),[7]; listed as Form II,the more stable form at or above 38 °C
